From patent EP0457908A1, “HYDROCHLORIDE 2,3,3a,4,5,6-HEXAHYDRO-8-CYCLOHEXYL-1H-PYRAZINO (3,2,1-j,k)CARBAZOL, METHOD OF OBTAINING IT AND A PHARMACEUTICAL PREPARATION OF ANTIDEPRESSIVE ACTION BASED ON IT” (priority 1989, dated 1991)

What was measured:
[1] = test system: fruit fly, embryonic cells of rats, bone-marrow cells of mice, culture of human lymphocytes; assay: Mutagenous effect tests; conditions: genetic mutations, dominant lethal mutations, chromosome aberrations
Experimental: The compound according to the present invention was also tested for a possible mutagenous effect by methods of evaluation of genetic mutations on fruit fly: dominant lethal mutations were studied on embryonic cells of rats, chromosome aberrations - in bone-marrow cells of mice and in a culture of human lymphocytes.

male white mice = assay: Hyperlocomotion induced by d,l-amphetamine; assay type: in vivo; conditions: 10-20 minutes after d,l-amphetamine 2.5 mg/kg intraperitoneally, distilled water 1,924.5±177.6
Experimental: The influence on hyperlocomotion induced by d,l-amphetamine was studied in experiments on male white mice with a mass of 20-22 g.
The locomotive activity of the mice was recorded 10-20 minutes after administration of d,l-amphetamine for 10 minutes.

white mice [2] = assay: Enhancement of the effect of 5-hydroxytryptophane (head shaking); assay type: in vivo
Experimental: The compound according to the present invention was tasted for the exciting effect of 5-hydroxytryptophane (head shaking).
The compound according to the present invention in the doses of 1.0, 2.5, 5.0 and 10 mg/kg was administered orally 60 minutes prior to an intraperitoneal administration of 5-hydroxytryptophane (50 mg/kg).

white mice [3] = assay: Reserpine-induced blepharoptosis; assay type: in vivo; conditions: acute and chronical experiments
Experimental: The compound according to the present invention was tested for the ability to decrease depriming effects of reserpin (blepharoptosis, hypothermia and the like).
Tests were carried out on white mice of both sexes with a mass of 16-18 g.
The compound according to the present invention was orally administered in a single dose and repeatedly during 18 days.
The compound according to the present invention was administered in the single doses of 1, 2.5 and 5 mg/kg; repeatedly - in the doses of 0.5, 1.0, 2.5 and 5 mg/kg. The single-time administration and the last administration of the 18 days' course were effected 60 minutes prior to the intraperitoneal administration of reserpine (2.5 mg/kg). For a comparative assessment in these and other experiments pyrazidol and imipramine were also administered.

white mice [4] = assay: Porsolt's swimming behaviour test (duration of immobilization); assay type: in vivo; conditions: for Duration of immobilization, %: distilled water = 100
Experimental: The effect of the compound according to the present invention on the duration of immobilization in Porsolt's swimming behaviour test (Porsolt et al., 1977) in experiments on white mice of both sexes with a mass of 16-18 g. […] Sixty minutes after the last (or a single) administration of the preparations, the mice were placed into cylinders (10 cm diameter, 25 cm height) filled with water to 6 cm. The temperature of water was 21-22 °C. […] The number and duration of all stops in swimming (immobilization) over the observation period were recorded.

mice and rats = assay: Carcinogenic properties, chronic experiment; assay type: in vivo
Solubility = assay type: physicochemical
[5] = Central and peripheral anticholinergic effect (oxotremorine, arecoline, galantamine); assay type: in vivo; conditions: 10 and 25 mg/kg orally and 1.0, 2.0 and 5.0 mg/kg intravenously
Experimental: The compound according to the present invention was also tested for its central and peripheral anticholinergic effect.

cats = assay: Bioelectrical activity of the brain (electroencephalogram), cats; assay type: in vivo
Description: The study of the effect on the bioelectrical activity of the brain was effected in acute experiments using 8 consious cats immobilized with diplacin with a mass of 2.5-3.4 kg under conditions of a controlled breathing and 25 rabbits with a mass of 2.6-3.1 kg with chronically implanted electrodes. Recorded on an electroencephalograph was an electroencephalogram of the sensomotor, parietal and visual regions of the cerebral cortex in cats, plus that of the reticular formation of the midbrain, dorsal hippocamp and amygdala in rabbits.

patients = assay: Clinical test on patients with depressions; assay type: in vivo, human beings
Experimental: The drug according to the present invention was tested in a clinic on patients (561 persons) aged 18 to 72 suffering from depressions of various genesis - endogenous, reactive, neurotic depressions caused by organic injuries of the brain, as well as depressive disturbances in chronical alcoholism and the like.
Clinical tests for different types of depressions were carried out in the following groups of patients:
The drug according to the present invention was administered orally in tablets twice a day - in the morning and in the afternoon. The dose depended on the severity of disease, efficiency and tolerance of the drug.
The treatment was usually started with administration of the drug in single doses of 0.025 g (25 mg) with a gradual increment of the daily dose for 1 to 3 weeks up to 200-300 to 350-400 mg.
The treatment duration ranged from 7 days to 12 weeks, more frequently 40-45 days.
In a number of cases (55 patients) the drug according to the present invention was administered in combination with other psychotropic agents selected mainly from the group of tranquilizers and neuroleptics (tazepam, seduxen, tizercin, and the like).
The efficiency as the drug according to the present invention was assessed with the use of assessment scales.

mice, rats and rabbits = assay: Chronical toxicity, daily administration for 6 months; assay type: in vivo; conditions: daily for 6 months
Description: The acute and chronical toxicity of the compound according to the present invention was studied on mice, rats and rabbits.
Upon a daily administration of the compound according to the present invention for the period of 6 months no functional disturbances on the part of the inner organs of the animals were observed.

[6] = Allergenic, embryotoxic and teratogenic effect; conditions: in vivo
[7] = Overall comparison of pharmacological parameters with pyrazidol; assay type: in vivo; conditions: certain pharmacological parameters
[8] = 5-days' administration, 1.0 mg/kg orally (dose from row order)
[9] = 5-days' administration, 2.5 mg/kg orally (dose from row order)
[10] = 5-days' administration, 5.0 mg/kg orally (dose from row order)
[11] = 18-days' administration, 2.5 mg/kg orally (dose from row order)
[12] = 18-days' administration, 5.0 mg/kg orally (dose from row order)
[13] = single administration, 1.0 mg/kg orally
[14] = single administration, 2.5 mg/kg orally
[15] = single administration, 5.0 mg/kg orally
[16] = endogenous depressions (maniac-depressive psychosis, schizophrenia), asthenic or asthenoadynamic syndromes, light and medium severity

With “2,3,3a,4,5,6-hexahydro-8-cyclohexyl-1H-pyrazino-(3,2,1-j,k)-carbazole hydrochloride [Compound of the present invention]” the mutagenic properties [1] was “revealed no mutagenic properties”, the “Average value of locomotor activity of a group of 5 mice for 10 minutes” value (shortened to “Average value”) (male white mice; 1.0 mg/kg oral) was 3,482.6±445.5 and the “Average value” value (male white mice; 2.5 mg/kg oral) was 3,315.5±462.6. For the same substance, the “Average value” value (male white mice; 5.0 mg/kg oral) was 4,885.0±537.2, the “more active than pyrazidol in enhancing the convulsive activity of 5-hydroxytryptophane” value (white mice [2]; mice, ratio of ED₅₀) was “about 8 times” and the “ED₅₀, the dose at which head shaking were noticed in 50% of the animals” value (white mice [2]; orally, 60 minutes prior to 5-hydroxytryptophane 50 mg/kg intraperitoneally, read 25 minutes after) was 2.5 (2.1-3.0) mg/kg. The “anti-reserpine effect, superior to pyrazidol” value (white mice [3]) was “more than 10 times”, the “Duration of immobilization, Seconds, M±m” value (white mice [4]; [8]) was 102 ± 8.1 s and the “Duration of immobilization, %” value (white mice [4]; [8]) was 61%. For the same substance, the “Duration of immobilization, Seconds, M±m” value (white mice [4]; [9]) was 102 ± 6.1 s, the “Duration of immobilization, %” value (white mice [4]; [9]) was 61% and the “Duration of immobilization, Seconds, M±m” value (white mice [4]; [10]) was 88 ± 5.2 s. For the same substance, the “Duration of immobilization, %” value (white mice [4]; [10]) was 53%, the “Duration of immobilization, %” value (white mice [4]; 18-days' administration, 1.0 mg/kg orally (dose from row order)) was 58% and the “Duration of immobilization, Seconds, M±m” value (white mice [4]; [11]) was 96 ± 11.0 s. The “Duration of immobilization, %” value (white mice [4]; [11]) was 52%, the “Duration of immobilization, Seconds, M±m” value (white mice [4]; [12]) was 75 ± 9.8 s and the “Duration of immobilization, %” value (white mice [4]; [12]) was 41%. The “active in doses lower than those of imipramine and pyrazidol” value (white mice [4]; Porsolt's test, mice, oral) was 10 times, the “Duration of immobilization, Seconds, M±m” value (white mice [4]; [13]) was 145 ± 10.4 s and the “Duration of immobilization, %” value (white mice [4]; [13]) was 92%. The “Duration of immobilization, Seconds, M±m” value (white mice [4]; [14]) was 111 ± 9.9 s, the “Duration of immobilization, %” value (white mice [4]; [14]) was 69% and the “Duration of immobilization, Seconds, M±m” value (white mice [4]; [15]) was 105 ± 8.1 s. The “Duration of immobilization, %” value (white mice [4]; [15]) was 63%, the carcinogenic properties (mice and rats) was “did not reveal carcinogenic properties” and the “solubility in a 95% ethanol and chloroform” value (Solubility) was “very sparingly soluble”. For the same substance, the “solubility in water and ether” value (Solubility) was “substantially insoluble”, the “central and peripheral anticholinergic effect” value [5] was “absence of the anticholinergic effect” and the “frequency of the rhythm of oscillations of biopotentials” value (cats; 2 mg/kg, cats, all recorded regions of the brain cortex, control 8-10 per second) was 20-25 per second. The “amplitudes of oscillations of biopotentials” value (cats; 2 mg/kg, cats, all recorded regions of the brain cortex, control 90-120 µV) was 25-40 µV, the “changes in the bioelectric activity in the cortex and subcortical brain structures” value (cats; 0.5 and 1 mg/kg, intravenously and intraperitoneally, cats and rabbits not distinguished) was “did not bring about any changes” and the “improvement observed, % of cases” value (patients; depressive disorders of the neurotic and reactive genesis) was 80-100%. For the same substance, the “improvement observed, % of the events” value (patients; [16]) was 37-92%, the “improvement observed, % of the events, on the average” value (patients; [16]) was 50% and the “patients with a previous resistance to another antidepressant therapy in whom the drug was highly effective” value (patients; human, in vivo) was 6 out of 21. The toleration by patients (patients; human, in vivo) was “good toleration by patients”, the pathomorphological study (mice, rats and rabbits; 100 mg/kg) was “non-specific pathological changes in parenchymatous organs which were of a reversible character” and the pathomorphological study (mice, rats and rabbits; 10 and 50 mg/kg) was “no pathological changes”. The “allergenic, embryotoxic or teratogenic effect” value [6] was “did not exhibit an allergenic effect, an embryotoxic or teratogenic effect” and the “more active than the known preparation pyrazidol” value [7] was 2-10 times.
